Like-named read-outs stand apart in the source and are kept apart here.
Tested on: HCV proteins in Rep5.1 cells (replicon cell line)
Assay: Inhibitory activity of HCV: cell-based ELISA in replicon cell line Rep5.1 (decrease of HCV proteins)
Design: species or system hepatitis C virus
Settings: Hepatitis C virus, 72 h
Protocol: In order to, screen and evaluate the anti-HCV therapeutic agents in cell level, the following experiments are carried out using a replicon cell line, Rep5.1 [Lohmann, et al., Replication of subgenomic hepatitis C virus RNAs in a hepatoma cell line. Science 285:110-113 (1999)].
Rep5.1 cells, the replicon cell line, are cultured in DMEM-10 containing 500 μg/ml of G418. The Rep5.1 cells in log phase are suspended by trypsin treatment, and 5000 cells are distributed to each well of a 96-well plate. After 4 hours when the cells are attached to the plate, the serially diluted drug is added to each well. After 48 hours, a part of the treated cells are observed by microscope, and MTT assay is carried out to evaluate the drug toxicity. The cytotoxicity is estimated in percentage based on the control containing no drug. After 72 hours, the remaining cells are fixed by methanol/acetone (50/50, v/v), and the decrease of HCV proteins is measured by using HCV antibody. The extent of decrease is estimated in percentage based on the control containing no drug, and the concentration of drug at which 50% of proteins is decreased is determined to be IC50. The compounds showing activity via this procedure are validated by Western blotting. In order to find out whether the decrease of HCV protein is related to the decrease of replicon RNA, Rep5.1 cell is treated with some selected drugs for 72 hours, RNA is purified, dot blotted, and hybridized with isotope labelled nucleic acid to determine the amounts of actin mRNA and replicon RNA, and finally the amount of RNA is compared.
Plasma samples from 300 persons positive to the hepatitis C antibody test were screened by antibody diagnosis kit produced by LG life Sciences Ltd. (LG HCD3.0 TMB) to select 40 plasma samples having high titer. Replicon cell line and Huh-7 cell line each were cultured in a 96-well cell culture plate, fixed by methanol/acetone (1:1) mixture, and blocked by 3% skimmed milk. The 40 plasma sanples selected above were 100-fold diluted and aided thereto, and the bound antibodies were probed by anti-Human goat antibody (Sigma) to which Horse Radish Peroxidase is attached. As a result, 12 plasma samples having low specificity to Huh-7 cell line, but high specificity to replicon cell line were obtained. These plasma samples were used in the following cell-based ELISA.
Rep5.1 cells were cultured in DMEM-10 containing 500 μg/ml of G418. The Rep5.1 cells in log phase were suspended by trypsin treatment, and 5000 cells were distributed to each well of a 96-well pate. After 4 hours for which the cells were attached to the plate, the serially diluted drug was added to each well. After 72 hours, the cells were fixed by methanol/acetone (50/50, v/v), and the decrease of HCV proteins was measured by using HCV antibody obtained as above. The extent of decrease was estimated in percentage based on the control containing no drug, and the concentration of drug at which 50% of proteins was decreased was determined to be IC50.

[1] = Rep5.1 cells, 72 hours with drug, concentration at which 50% of HCV proteins was decreased, Table 2, read-out: IC50
[2] = Rep5.1 cells, 72 hours with drug, decrease of HCV proteins measured by HCV antibody, Table 1, read-out: Level (IC50 values classified)

SMILES | IC50 [1] [nM] | IC50 [2] [nM] | IC50 [nM] | IC50 (read-out: Level (IC50 values classified)) [nM]
CC1=C(C(=O)OCCCc2ccco2)C(CF)NC(=S)N1 (centres unmarked) [Compound 270, 4-fluoromethyl-6-methyl-2-thioxo-1,2,3,4-tetrahydro-pyrimidine-5-carboxylic acid 3-furan-2-yl-propyl ester] | 5000 | 1000 to 10000 | – | –
CC1=C(C(=O)OCc2cccc(SC(F)(F)F)c2)CNC(=S)N1 [Compound 164, 6-methyl-2-thioxo-1,2,3,4-tetrahydro-pyrimidine-5-carboxylic acid 3-trifluoromethylsulfanyl-benzyl ester] | < 400 | < 1000 | – | –
CC1=C(C(=O)OCCc2scnc2C)CNC(=S)N1 [Compound 24, 6-methyl-2-thioxo-1,2,3,4-tetrahydro-pyrimidine-5-carboxylic acid 2-(4-methyl-thiazol-5-yl)-ethyl ester] | 70000 | > 20000 | – | –
CC1=C(C(=O)OCCCCSc2nc3ccccc3s2)C(CF)NC(=S)N1 (centres unmarked) [55′, 4-fluoromethyl-6-methyl-2-thioxo-1,2,3,4-tetrahydro-pyrimidine-5-carboxylic acid 4-(benzothiazol-2-ylsulfanyl)-butyl ester] | 1600 | 1000 to 10000 | – | –
CC1=C(C(=O)OCc2ccccc2SCC(C)C)CNC(=S)N1 [Compound 111, 6-methyl-2-thioxo-1,2,3,4-tetrahydro-pyrimidine-5-carboxylic acid 2-isobutylsulfanyl-benzyl ester] | 2000 | 1000 to 10000 | – | –
CCOc1ccccc1CCOC(=O)C1=C(C)NC(=S)NC1CF (centres unmarked) [Compound 274, 4-fluoromethyl-6-methyl-2-thioxo-1,2,3,4-tetrahydro-pyrimidine-5-carboxylic acid 2-(2-ethoxy-phenyl)-ethyl ester] | > 100000 | > 20000 | – | –
CC1=C(C(=O)OCc2ccc(-c3ccccc3)cc2)CNC(=S)N1 [Compound 22, 6-methyl-2-thioxo-1,2,3,4-tetrahydro-pyrimidine-5-carboxylic acid biphenyl-4-ylmethyl ester] | 400 | < 1000 | – | –
CC1=C(C(=O)OCc2ccc(-c3cnc(C)s3)s2)CNC(=S)N1 [Compound 221, 6-methyl-2-thioxo-1,2,3,4-tetrahydro-pyrimidine-5-carboxylic acid 5-(2-methyl-thiazol-5-yl)-thiophen-2-ylmethyl ester] | 2500 | 1000 to 10000 | – | –
CC1=C(C(=O)OCc2ccc(C(F)(F)F)cc2)CNC(=S)N1 [Compound 114, 6-methyl-2-thioxo-1,2,3,4-tetrahydro-pyrimidine-5-carboxylic acid 4-trifluoromethyl-benzyl ester] | < 400 | < 1000 | – | –
CC1=C(C(=O)OCC2CC3CCC2C3)CNC(=S)N1 (centres unmarked) [Compound 151, 6-methyl-2-thioxo-1,2,3,4-tetrahydro-pyrimidine-5-carboxylic acid bicyclo[2.2.1]hept-2-ylmethyl ester] | – | – | < 400 | < 1000
CC1=C(C(=O)OC(C)CCc2ccccc2)CNC(=S)N1 (centres unmarked) [Compound 42, 6-methyl-2-thioxo-1,2,3,4-tetrahydro-pyrimidine-5-carboxylic acid 1-methyl-3-phenyl-propyl ester] | 500 | < 1000 | – | –
CC1=C(C(=O)OCc2ccc(Cl)cc2)C(CF)NC(=S)N1 (centres unmarked) [34′, 4-fluoromethyl-6-methyl-2-thioxo-1,2,3,4-tetrahydro-pyrimidine-5-carboxylic acid 4-chloro-benzyl ester] | 700 | < 1000 | – | –
CC1=C(C(=O)OCCc2ccc(Cl)s2)C(CO)NC(=S)N1 (centres unmarked) [1″, 4-hydroxymethyl-6-methyl-2-thioxo-1,2,3,4-tetrahydro-pyrimidine-5-carboxylic acid 2-(5-chloro-thiophen-2-yl)-ethyl ester] | 1600 | 1000 to 10000 | – | –
C=C(Cl)COC(=O)C1=C(C)NC(=S)NC1 [Compound 98, 6-methyl-2-thioxo-1,2,3,4-tetrahydro-pyrimidine-5-carboxylic acid 2-chloro-allyl ester] | 7000 | 1000 to 10000 | – | –
CC1=C(C(=O)OCCc2ccc(N(C)CC3CC3)c([N+](=O)[O-])c2)C(CO)NC(=S)N1 (centres unmarked) [98″, 4-Hydroxymethyl-6-methyl-2-thioxo-1,2,3,4-tetrahydro-pyrimidine-5-carboxylic acid 2-[4-(cyclopropylmethyl-methyl-amino)-3-nitro-phenyl]-ethyl ester] | 1000 | < 1000 | – | –
CC1=C(C(=O)OCCc2ccc([N+](=O)[O-])cc2)CNC(=S)N1 [Compound 119, 6-methyl-2-thioxo-1,2,3,4-tetrahydro-pyrimidine-5-carboxylic acid 2-(4-nitro-phenyl)-ethyl ester] | 1300 | 1000 to 10000 | – | –
CC(=O)OCC1NC(=S)NC(C)=C1C(=O)OCCc1cccc(Cl)c1 (centres unmarked) [44″, 4-acetoxymethyl-6-methyl-2-thioxo-1,2,3,4-tetrahydro-pyrimidine-5-carboxylic acid 2-(3-chloro-phenyl)-ethyl ester] | 5000 | 1000 to 10000 | – | –
CC1=C(C(=O)OCCCc2ccsc2F)C(CF)NC(=S)N1 (centres unmarked) [52′, 4-fluoromethyl-6-methyl-2-thioxo-1,2,3,4-tetrahydro-pyrimidine-5-carboxylic acid 3-(2-fluoro-thiophen-3-yl)-propyl ester] | 22000 | > 20000 | – | –
CC1=C(C(=O)OCc2cccc([N+](=O)[O-])c2)CNC(=S)N1 [Compound 77, 6-methyl-2-thioxo-1,2,3,4-tetrahydro-pyrimidine-5-carboxylic acid 3-nitro-benzyl ester] | 2300 | 1000 to 10000 | – | –
CC1=C(C(=O)SCCc2ccccc2)C(CO)NC(=S)N1 (centres unmarked) [62″, 4-hydroxymethyl-6-methyl-2-thioxo-1,2,3,4-tetrahydro-pyrimidine-5-carbothioic acid S-phenethyl ester] | > 100000 | > 20000 | – | –
COc1ccc(Cl)cc1CCOC(=O)C1=C(C)NC(=S)NC1CO (centres unmarked) [56″, 4-hydroxymethyl-6-methyl-2-thioxo-1,2,3,4-tetrahydro-pyrimidine-5-carboxylic acid 2-(5-chloro-2-methoxy-phenyl)-ethyl ester] | 600 | < 1000 | – | –
COc1ccc(CSC(=O)C2=C(C)NC(=S)NC2)cc1 [Compound 121, 6-methyl-2-thioxo-1,2,3,4-tetrahydro-pyrimidine-5-carbothioic acid S-(4-methoxy-benzyl)ester] | 500 | < 1000 | – | –
CC1=C(C(=O)OCCc2cccc(C(F)(F)F)c2)C(COC(=O)C(C)N)NC(=S)N1 (centres unmarked) [73″, 4-(2-amino-propionyloxymethyl)-6-methyl-2-thioxo-1,2,3,4-tetrahydro-pyrimidine-5-carboxylic acid 2-(3-trifluoromethyl-phenyl)-ethyl ester] | 400 | < 1000 | – | –
CC1=C(C(=O)OCc2c(C)cccc2C)CNC(=S)N1 [Compound 184, 6-methyl-2-thioxo-1,2,3,4-tetrahydro-pyrimidine-5-carboxylic acid 2,6-dimethyl-benzyl ester] | 19000 | 10000 to 20000 | – | –
CC1=C(C(=O)OCCc2ccc(F)cc2Cl)C(CO)NC(=S)N1 (centres unmarked) [58″, 4-hydroxymethyl-6-methyl-2-thioxo-1,2,3,4-tetrahydro-pyrimidine-5-carboxylic acid 2-(2-chloro-4-fluoro-phenyl)-ethyl ester] | 1800 | 1000 to 10000 | – | –
